In US20120053076A1, “METHODS FOR IDENTIFICATION” (Cambridge Enterprise Limited, priority 2009, published 2012):
Like-named read-outs stand apart in the source and are kept apart here.

What was measured:
[1] = system: α2-adrenoreceptor; assay: Blood pressure; format: in vivo; settings: description b37
[2] = system: leukocytes; assay: Chemokine-induced leukocyte migration (cells not specified); format: cell-based; settings: description b37, b38
[3] = system: 5HT2a; settings: rodents, cited from earlier work
[4] = biological target: type 2 somatostatin receptor (sstr2), human (human) (UniProt P30874); assay: cell-based or functional assay
Sequence of type 2 somatostatin receptor (sstr2), human (human) (P30874 whole entry): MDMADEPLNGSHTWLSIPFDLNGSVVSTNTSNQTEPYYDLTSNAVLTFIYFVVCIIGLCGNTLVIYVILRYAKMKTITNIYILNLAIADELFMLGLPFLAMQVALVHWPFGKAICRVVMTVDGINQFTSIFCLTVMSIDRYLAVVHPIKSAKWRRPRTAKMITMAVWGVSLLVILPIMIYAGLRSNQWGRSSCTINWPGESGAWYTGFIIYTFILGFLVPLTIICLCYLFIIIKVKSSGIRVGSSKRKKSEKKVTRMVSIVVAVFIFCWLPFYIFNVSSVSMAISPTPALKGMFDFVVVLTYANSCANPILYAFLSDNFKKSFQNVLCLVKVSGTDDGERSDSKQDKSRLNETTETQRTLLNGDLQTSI

[5] = system: Jurkat T cells; assay: SDF-1α induced migration of parental Jurkat T cells; format: cell-based, human
Protocol: Results: The level of the SDF-1α, receptor CXCR4 was similar on Jurkat-D3B and the parental Jurkat T cell line. Furthermore, the Jurkat-D3B cells responded to SDF-1α in a Transwell® chemotaxis assay (see Example 1 for the methodology employed) over a similar concentration range to the parental cell line.
Jurkat T cells and Jurkat-D3B cells were induced to migrate in response to 100 ng/ml SDF-1α (R&D systems; the concentration of SDF-1α which induced maximal cell migration in both lines). The BSCI BN83250 was then added at various concentrations between 0 nM and 1000 nM (each in triplicate) to both the upper and lower compartments (at the same concentration in each compartment, so as not to create a gradient of BSCI concentration). DMSO (1% final concentration) was used as the vehicle, and was present in all wells at equal concentration.

[6] = biological target: T1, α2-adrenoreceptor; assay: [3H]-dihydroergocryptine binding to α2-adrenoreceptor membranes; settings: 5 nM [3H]-DHE
T1 construct: other: 5 nM [3H]-DHE
Protocol: Methods: Radioligand binding experiments were performed with commercially available membrane preparations from cells expressing the α2-adrenoreceptor (Sigma) in accordance with the manufacturer's instructions. […] Experiments were performed in triplicate, and non-specific binding was determined in the presence of an excess (10 μM) of oxymetazoline.

[7] = system: platelets; assay: ADP-mediated platelet activation/aggregation; format: cell-based
[8] = biological target: α2-adrenoreceptor; settings: radioligand RS-79948-197; Grainger et al. (2005); read-out: Apparent affinity at α2-adrenoreceptor; cited from earlier work
[9] = system: THP-1 cells; assay: MCP-1 induced THP-1 cell migration, Transwell assay; format: cell-based, human; settings: MCP-1 25 ng/ml
Protocol: Leukocyte migration was measured using the 96-well format micro Transwell® assay system from Neuroprobe (Gaithersburg, Md., USA). In principle, this assay consists of two chambers separated by a porous membrane. The chemoattractant is placed in the lower compartment and the cells are placed in the upper compartment.
The method was performed essentially as previously described (Reckless & Grainger (1999) Biochem. J. 340:803-11).
First, the cell suspension to be placed in the upper compartment was prepared. The THP-1 cells were pelleted by centrifugation (770×g; 4 mins) and washed with Geys Balanced Salt Solution with 1 mg/ml BSA (GBSS+BSA). This wash was then repeated, and the cells re-pelleted before being resuspended in a small volume of GBSS+BSA for counting, for example using a standard haemocytometer.
The volume of GBSS+BSA was then adjusted depending on the number of cells present so that the cells were at final density of 4.45×10^6 cells per ml of GBSS+BSA. This ensured that there were 100,000 THP-1 cells in each 25 μl of the solution to be placed in the upper chamber of the plate.
The suspension of THP-1 cells at 4.45×10^6 cells/ml was divided into three pots. […] To the second pot, the BSCI was added at the same concentration as in the first pot, but additionally the sstr2 antagonist was also added (for example BIM 23454 [Tulipano et al. (2002) 143:1218-24] or BIM 23627 were added at 66 nM final concentration from a stock solution in GBSS). To the third pot, GBSS+BSA plus vehicle as appropriate was added so that the volumes in three pots are equal, acting as a control.
Next, the chemoattractant solution to be placed in the lower compartment was prepared. MCP-1 was diluted in GBSS+BSA to give a final concentration of 25 ng/ml (after all additions). Note that, as recommended by Frow et al (Med. Res. Rev. 24:276-98) this is the concentration of MCP-1 which induces maximal migration in this system. This solution was divided into three pots, as for the cell suspension. To one pot, the BSCI was added to the same final concentration as was added to the cell suspension, in the second pot the BSCI and the sstr2 antagonist were both added at the same concentration as previously added to the cell suspension, while to the remaining pot GBSS+BSA plus vehicle as appropriate was added so that the volumes in the three pots were equal.
Once the chemoattractant solutions for the lower wells and cell solutions for the upper chambers were prepared, the migration chamber was assembled. 29 μl of the appropriate chemoattractant solution was placed into the lower well of the chamber. Assays were performed with at least triplicate determinations of each condition. Once all the lower chambers were filled, the porous membrane was applied to the chamber in accordance with the manufacturer's instructions. Finally, 25 μl of the appropriate cell solution was applied to each upper chamber. A plastic lid was placed over the entire apparatus to prevent evaporation.
The assembled chamber was incubated at 37° C., 5% CO2, for 2 hours.
At the end of the incubation, the liquid cell suspension was gently removed from the upper chamber, 20 μl of ice-cold 20 mM EDTA in PBS was added to the upper chamber, and the apparatus was incubated at 4° C. for 15 mins. This procedure caused any cells adhering to the underside of the membrane to fall into the lower chamber.
After this incubation the filter was carefully flushed with GBSS+BSA to wash off the EDTA, and then the filter was removed.
The number of cells migrated into the lower chamber under each condition can then be determined by a number of methods, including direct counting, labelling with fluorescent or radioactive markers or through the use of a vital dye. Typically, we utilised the vital dye MTT.

[10] = biological target: T2, 5HT2a receptor (Homo sapiens, UniProt P28223); assay: [3H]-ketanserin binding to 5HT2a receptor membranes
T2 construct: purchased Sigma
T2 sequence (P28223 whole entry): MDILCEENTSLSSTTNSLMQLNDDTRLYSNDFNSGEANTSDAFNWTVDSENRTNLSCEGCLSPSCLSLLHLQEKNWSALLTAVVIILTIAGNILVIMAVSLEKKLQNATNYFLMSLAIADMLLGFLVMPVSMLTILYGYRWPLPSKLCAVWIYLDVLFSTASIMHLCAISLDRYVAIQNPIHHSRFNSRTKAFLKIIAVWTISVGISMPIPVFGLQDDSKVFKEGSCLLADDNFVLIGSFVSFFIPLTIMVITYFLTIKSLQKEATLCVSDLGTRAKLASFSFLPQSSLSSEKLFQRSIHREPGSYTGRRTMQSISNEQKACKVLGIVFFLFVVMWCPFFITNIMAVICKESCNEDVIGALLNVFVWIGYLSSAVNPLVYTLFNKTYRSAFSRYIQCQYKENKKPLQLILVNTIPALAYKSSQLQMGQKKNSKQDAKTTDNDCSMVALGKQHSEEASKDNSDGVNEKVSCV
Protocol: Methods: Radioligand binding experiments were performed with commercially available membrane preparations from cells expressing the 5HT2a receptor (Sigma) in accordance with the manufacturer's instructions. [^3H]-ketanserin was used as the radioligand probe (according to the method of Leysen et al. (1988) Pharmacol. Exp. Therap. 244:310-21) at 1 nM concentration (0.05 μCi per reaction). Experiments were performed in triplicate, and non-specific binding was determined in the presence of an excess (10 μM) of metergoline (a relatively non-specific ergot-derived serotonin receptor antagonist).

For `COC(=O)[C@H]1[C@H]2C[C@@H]3c4[nH]c5cc(OC)ccc5c4CCN3C[C@H]2C[C@@H](OC(=O)c2cc(OC)c(OC)c(OC)c2)[C@@H]1OC` [reserpine], the “Effect on blood pressure” value [1] was “powerfully lowers blood pressure” and the “Effect on chemokine-induced leukocyte migration, in words” value [2] was “no effect on chemokine-induced leukocyte migration”.

For `COc1cc(Br)c(OC)c2c1[C@H](CN)C2` [TCB-2], the “Effect on chemokine-induced leukocyte migration, in words” value [2] is listed as “no effect on chemokine-induced leukocyte migration”, the “Head twitching by classical 5HT2a agonists” value [3] is listed as “induce this classical effect” and the “Head twitching by classical 5HT2a agonists” value ([3]; listed as TCB2) is listed as “powerfully induces head twitch”.

For cortistatin (peptide), the ED50 for inhibition of MCP-1 induced THP-1 cell migration [4] was 75 nM.

In the case of `NC(=O)C1CCC[C@H]2CN3CCc4c([nH]c5ccccc45)[C@@H]3C[C@H]12` (stereo partly shown) [Yohimban-16-amide], the “Inhibition of SDF-1α induced migration of Jurkat T cells, in words” value [5] is reported as “neither agent inhibits”, the “Apparent Ka, inhibition of [3H]-DHE binding” value [6] is reported as 89 ± 13 nM and the “Effect on ADP-mediated platelet activation/aggregation” value [7] is reported as “no effect on the activation of platelets in response to ADP”. The Ki [8] was 770 nM.

In the case of `CN1C[C@H](C(=O)O)C=C2c3cccc4[nH]cc(c34)C[C@H]21` [lysergic acid], the “Inhibition of MCP-1 induced THP-1 cell migration, in words” value [9] is reported as “neither agent inhibits”, the “Inhibition of SDF-1α induced migration of Jurkat T cells, in words” value [5] is reported as “neither agent inhibits” and the Ki [10] is reported as 49 ± 12 nM.
